Patent US9591852B2, “Biofilm disruptive compositions” (McNeil-PPC, Inc., priority 2009, dated 2017)
Where two headings read alike, the source gives them in different places.

System: 48-hour salivary biofilm
Test: Biofilm disruption screening assay: 48-hour salivary biofilm on polystyrene peg plate, ATP bioluminescence of bacteria remaining
Format: cell-based
Conditions: for log RLU compound: treated twenty minutes, N=8
Description: (§1) A 48-hour salivary biofilm was grown on a polystyrene peg plate substrate (96 pegs, N=8 per test group). The pegs were subsequently treated for twenty minutes with each of the long chain alcohols formulations described above, as well as the negative control. After treatment, viable bacteria remaining on the substrate were removed by sonication using a Ultrasonic processor XL by Misonix (Farmingdale, N.Y.), lysed with Celsis Luminex (Celsis Rapid Detection Rapiscreen (Celsis International PLC, Chicago)) and ATP from the bacteria were measured using a bioluminescence marker Celsis LuminATE (Celsis Rapid Detection Rapiscreen (Celsis International PLC, Chicago)). Data was reported in log RLU (relative light units), where decreasing log RLUs indicates fewer bacteria remaining on the substrate and in M-factor units where M-factor is the difference between the log RLU values of the compound tested and the negative control.
as §1, with “marker.” for “marker”
To determine the concentration dependence of biofilm disruptor activity, a series of formulations was prepared with cis-2-nonen-1-ol concentration ranging from 0.0005% to 0.1%. These formulations were tested against the negative control in the biofilm disruption screening assay described in Examples 1 and 2. Data was reported in log RLU (relative light units) where decreasing log RLUs indicates fewer bacteria remaining on the substrate and in M-factor units where M-factor is the difference between the log RLU values of the compound tested and the negative control. […]

[1] = 20 min, alcohol 0.05% (w/v), twenty minutes, difference between log RLU of compound and negative control, read-out: M-factor
[2] = unsaturated long chain alcohol 0.05% (w/v) in water/ethanol/Pluronic F-127, decreasing log RLU = fewer bacteria remaining
[3] = 20 min, aldehyde 0.05% (w/v), twenty minutes, difference between log RLU of compound and negative control, read-out: M-factor
[4] = unsaturated long chain aldehyde 0.05% (w/v) in water/ethanol/Pluronic F-127

Compound | log reduction at 0.05 % [1] | log RLU compound [2] [log RLU] | log reduction at 0.05 % [3] | log RLU compound [4] [log RLU] | further results
C=CC(O)CCCCCCC (stereo not drawn) [1-decen-3-ol] | 0.86 | 4.46 |  |  | 
C=CC(O)CCCCC (stereo not drawn) [1-octen-3-ol] | 0.33 | 4.99 |  |  | 
CC(C)=CCCC(C)C=O (stereo not drawn) [2,6-dimethyl-5-hepten-1-al] |  |  | 0.21 | 5.07 | 
C=CCCCCCCCCO [9-decen-1-ol] | 0.97 | 4.35 |  |  | 
CCC/C=C\CO [cis-2-hexen-1-ol] | 0.11 | 5.21 |  |  | 
CCCCCC/C=C\CO [cis-2-nonen-1-ol] | 0.76 | 4.57 |  |  | log reduction at 0.1 % (20 min, formulation A, cis-2-nonen-1-ol 0.1% (w/v), vs negative control log RLU 5.63, read-out: M-factor): 0.82; log reduction at 0.05 % (20 min, formulation B, cis-2-nonen-1-ol 0.05% (w/v), vs negative control log RLU 5.63, read-out: M-factor): 0.82; log reduction at 0.025 % (20 min, formulation C, cis-2-nonen-1-ol 0.025% (w/v), vs negative control log RLU 5.63, read-out: M-factor): 0.35; log reduction at 0.01 % (20 min, formulation D, cis-2-nonen-1-ol 0.01% (w/v), vs negative control log RLU 5.63, read-out: M-factor): 0.04; log reduction at 0.005 % (20 min, formulation E, cis-2-nonen-1-ol 0.005% (w/v), vs negative control log RLU 5.63, read-out: M-factor): -0.06; log reduction at 0.001 % (20 min, formulation F, cis-2-nonen-1-ol 0.001% (w/v), vs negative control log RLU 5.63, read-out: M-factor): -0.07; log reduction at 0.0005 % (20 min, formulation G, cis-2-nonen-1-ol 0.0005% (w/v), vs negative control log RLU 5.63, read-out: M-factor): -0.09; log RLU (formulation A, cis-2-nonen-1-ol 0.1% (w/v)): 4.81 log RLU; log RLU (formulation B, cis-2-nonen-1-ol 0.05% (w/v)): 4.82 log RLU; log RLU (formulation C, cis-2-nonen-1-ol 0.025% (w/v)): 5.28 log RLU; log RLU (formulation D, cis-2-nonen-1-ol 0.01% (w/v)): 5.59 log RLU; log RLU (formulation E, cis-2-nonen-1-ol 0.005% (w/v)): 5.69 log RLU; log RLU (formulation F, cis-2-nonen-1-ol 0.001% (w/v)): 5.70 log RLU; log RLU (formulation G, cis-2-nonen-1-ol 0.0005% (w/v)): 5.72 log RLU
CCC/C=C\CCO [cis-3-hepten-1-ol] | 0.25 | 5.07 |  |  | 
CC/C=C\CCO [cis-3-hexen-1-ol] | 0.06 | 5.22 |  |  | 
CCCCC/C=C\CCO [cis-3-nonen-1-ol] | 0.76 | 4.56 |  |  | 
CCCCC/C=C\CCCO [cis-4-decen-1-ol] | 0.62 | 4.71 |  |  | 
CCCCC/C=C\CCC=O [cis-4-decenal] |  |  | 0.99 | 4.59 | 
CC/C=C\CCC=O [cis-4-hepten-1-al] |  |  | -0.04 | 5.14 | 
CC/C=C\CCCCO [cis-5-octen-1-ol] | 0.31 | 5.01 |  |  | 
CC/C=C\CCCCCO [cis-6-nonen-1-ol] | 0.72 | 4.60 |  |  | 
CC/C=C\CCCCC=O [cis-6-nonenal] |  |  | 0.44 | 4.84 | 
CC/C=C\CCCCCC=O [cis-7-decenal] |  |  | 0.33 | 5.25 | 
CCCCCCC/C=C/CO [trans-2-decen-1-ol] | 1.45 | 4.13 |  |  | 
CCCCCCC/C=C/C=O [trans-2-decenal] |  |  | 0.95 | 4.63 | 
CCCCCCCCC/C=C/CO [trans-2-dodecen-1-ol] | 0.88 | 4.44 |  |  | 
CCCCCCCCC/C=C/C=O [trans-2-dodecenal] |  |  | 1 | 4.58 | 
CCCC/C=C/C=O [trans-2-heptenal] |  |  | 0.06 | 5.52 | 
CCC/C=C/CO [trans-2-hexen-1-ol] | 0.12 | 5.20 |  |  | 
CCC/C=C/C=O [trans-2-hexenal] |  |  | 0.19 | 5.39 | 
CCCCCC/C=C/CO [trans-2-nonen-1-ol] | 0.45 | 4.83 |  |  | 
CCCCCC/C=C/C=O [trans-2-nonenal] |  |  | 0.92 | 4.66 | 
CCCCC/C=C/CO [trans-2-octen-1-ol] | 0.69 | 4.89 |  |  | 
CCCCC/C=C/C=O [trans-2-octenal] |  |  | 0.32 | 5.26 | 
CCCCCCCC/C=C/CO [trans-2-undecen-1-ol] | 0.56 | 4.72 |  |  | 
CCCCCCCC/C=C/C=O [trans-2-undecenal] |  |  | 0.83 | 4.49 | 
